Results from patent US6818049B1, “Environmentally preferred fluids and fluid blends” (ExxonMobil Chemical Patents Inc., priority 1998, dated 2004).
Read-outs that look alike come from different tables or passages of the source. Marks after values point to notes of the source that are not given here.

Legend:
[1] = reported literature data, cited from earlier work
Fluid solvent properties = conditions: for Viscosity: 20° C.
Description: One of ordinary skill in the art can readily determine the flash point of a fluid or blend (e.g., ASTM D92-78).
The evaporation rate should be suitable for the intended purpose. […] The fluid selected preferably will have a similar evaporation rate to the disadvantaged fluid being replaced, particularly in the case where a fluid blend is used and an acceptable evaporation profile is desired. It is convenient for the fluid selected to have an evaporation rate less than 12 times the evaporation rate of n-butyl acetate. Evaporation rates may also be given relative to n-butyl acetate at 1.0 (ASTM D3539-87). Ranges of evaporation rates important for different applications are 5-3, 3-2, 2-1, 1.0-0.3, 0.3-0.1, and <0.1, relative to n-butyl acetate at 1.0. The present invention is related to fluids and fluid blends that at least partially evaporate into the atmosphere during or after their application.

[2] = Stability to acid catalyst (pTSA) in acrylic solvent system, followed by gas chromatography; type: physicochemical; conditions: 0.5 wt % pTSA, 50° C.; for Wt. % of Solvent At One Week Decomposition Period / Wt. % of Solvent At Three Week Decomposition Period: nitrogen atmosphere, start = 100
Experimental: Acrylic solvent systems were prepared to test the stability of dimethyl carbonate to acid catalysts, which are commonly present in coating compositions. The formulations contained 29.9 wt % DMC, 28.7 wt % pentyl acetate, 20.2 wt % n-butyl acetate, 16.1 wt % n-butyl alcohol, 3.6 wt % methyl ethyl ketone, 1.5 wt % isopropyl alcohol. 2 wt % toluene as an internal standard. The latter materials were purchased from Aldrich Chemical Co.
Para toluene sulfonic acid (PTSA) was added to the above formulation (again, pTSA was purchased from Aldrich Chemical Co.), in the amount of 0.5 wt %. The solutions were sealed and placed in an oven at 50° C. under a nitrogen atmosphere. Samples were withdrawn at intervals for testing. The content of dimethyl carbonate was monitored over time by gas chromatographic analysis using an HP 5890 gas chromatograph. In a parallel experiment an equal amount of tert. Butyl acetate was used instead of DMC. The results are shown below in Table 8 (all percentages are by weight).

Description for in vivo: One way to measure the toxic effects of a chemical is to measure the dose-effect relationship; the dose is usually measured in mg of chemical per kg of body mass. This is typically done experimentally by administering the chemical to mice or rats at several doses in the lethal range and plotting the logarithm of the dose versus the percentage of the population killed by the chemical. The dose lethal to 50% of the test population is called the median lethal dose (LD50) and is typically used as a guide for the toxicity of a chemical. […] EU (European Union) uses a cutoff of >2,000 mg/kg.

In the case of `CCCCOC(C)=O` [Butyl Acetate], the “Flash Point” value [1] is given as 27 °C.
For `COC(=O)OC` [DMC, dimethyl carbonate], the LD50 (in vivo) is listed as 13000 mg/kg, the “Flash Point” value [1] is listed as “+19 to +32* ° C” and the “Boiling Temperature” value (Fluid solvent properties) is listed as 90 °C. For the same molecule, the “Evaporation Ratio to Butyl Acetate” value (Fluid solvent properties) was 3.2, the “Specific Gravity” value (Fluid solvent properties) was 1.065 and the Surface Tension (Fluid solvent properties) was 29 dyn/cm. For the same molecule, the Viscosity (Fluid solvent properties) was 0.60 cps, the “Stability to acid catalysts (in words)” value [2] was “more stable to acid catalysts than is t-butyl acetate” and the “Wt. % of Solvent At One Week Decomposition Period” value [2] was 97.8 wt. %. For the same molecule, the “Wt. % of Solvent At Three Week Decomposition Period” value [2] was 95.4 wt. %.
For `COC(=O)C(C)(C)C` [MP, methyl pivalate], the “Boiling Temperature” value (Fluid solvent properties) was 99 °C, the “Evaporation Ratio to Butyl Acetate” value (Fluid solvent properties) was 2.2 and the “Flash Point” value (Fluid solvent properties) was 27.2 °C. The “Specific Gravity” value (Fluid solvent properties) was 0.873, the Surface Tension (Fluid solvent properties) was 23.8 dyn/cm and the Viscosity (Fluid solvent properties) was 0.74 cps.
For `CC(=O)OC(C)(C)C` [t-butyl acetate], the “Wt. % of Solvent At One Week Decomposition Period” value [2] was 54.4 wt. % and the “Wt. % of Solvent At Three Week Decomposition Period” value [2] was 17.2 wt. %.
For `COC(C)=O` [methyl acetate], the “Flash Point” value [1] is listed as ~−12 °C and the “Flash Point” value ([1]; listed as Methyl acetate) is listed as “about −12 °C”.
For `CC(C)=O` [Acetone], the LD50 (in vivo) is listed as 5800 mg/kg, the “Flash Point” value [1] is listed as −20* ° C and the “Boiling Temperature” value (Fluid solvent properties) is listed as 56 °C. For the same molecule, the “Evaporation Ratio to Butyl Acetate” value (Fluid solvent properties) was 18, the “Hansen Solubility Parameter, H-Bouding” value (Fluid solvent properties) was 3.4 and the “Hansen Solubility Parameter, Nonpolar” value (Fluid solvent properties) was 7.6. The “Hansen Solubility Parameter, Polar” value (Fluid solvent properties) was 5.1, the “Hansen Solubility Parameter, Total” value (Fluid solvent properties) was 9.2 and the “Specific Gravity” value (Fluid solvent properties) was 0.792. It also gave a Surface Tension (Fluid solvent properties) of 22.3 dyn/cm and a Viscosity (Fluid solvent properties) of 0.33 cps.
